In US8263603B2, “N3-substituted-N1-sulfonyl-5-fluoropyrimidinone derivatives” (Dow AgroSciences, LLC, priority 2010, dated 2012):

Legend:
[1] = tested on: Mycosphaerella graminicola; anamorph: Septoria tritici; Bayer code SEPTTR; assay: Fungicidal activity against leaf blotch of wheat, one-day protectant (1 DP); format: in vivo; settings: Zymoseptoria tritici, 24 h, wheat plants (variety Yuma), rating of % disease control
Protocol: (§1) Evaluation of Fungicidal Activity: Leaf Blotch of Wheat (Mycosphaerella graminicola; anamorph: Septoria tritici; Bayer code […]) Wheat plants (variety Yuma) were grown from seed in a greenhouse in 50% mineral soil/50% soil-less Metro mix until the first leaf was fully emerged, with 7-10 seedlings per pot. These plants were inoculated with an aqueous spore suspension of Septoria tritici either prior to or after fungicide treatments. After inoculation the plants were kept in 100% relative humidity (one day in a dark dew chamber followed by two days in a lighted dew chamber) to permit spores to germinate and infect the leaf. The plants were then transferred to a greenhouse for disease to develop. The following table presents the activity of typical compounds of the present disclosure when evaluated in these experiments. The effectiveness of the test compounds in controlling disease was determined by assessing the severity of disease on treated plants, and then converting the severity to percent control based on the level of disease on untreated, inoculated plants. • In each case of Table II the rating scale is as follows: […]

[2] = tested on: Mycosphaerella graminicola; anamorph: Septoria tritici; Bayer code SEPTTR; assay: Fungicidal activity against leaf blotch of wheat, three-day curative (3 DC); format: in vivo; settings: Zymoseptoria tritici, 72 h, wheat plants (variety Yuma), rating of % disease control
Protocol: as §1

Structure (SMILES)	pest or weed control at 100 ppm [1] [%]	pest or weed control at 100 ppm [2] [%]	melting point [°C]
Cn1c(=N)c(F)cn(S(=O)(=O)c2ccccc2)c1=O [Compound 1, 1-Benzenesulfonyl-5-fluoro-4-imino-3-methyl-3,4-dihydro-1H-pyrimidin-2-one]	76 to 100	76 to 100	144
Cn1c(=N)c(F)cn(S(=O)(=O)c2cccs2)c1=O [Compound 2]	76 to 100	76 to 100	136 to 139
COc1ccc(S(=O)(=O)n2cc(F)c(=N)n(C)c2=O)cc1 [Compound 3]	76 to 100	76 to 100	158 to 162
Cn1c(=N)c(F)cn(S(=O)(=O)c2ccc(Cl)cc2)c1=O [Compound 4]	76 to 100	76 to 100	147 to 150
COc1ccc(S(=O)(=O)n2cc(F)c(=N)n(Cc3ccccc3)c2=O)cc1 [Compound 5, 3-benzyl-5-fluoro-4-imino-1-(4-methoxyphenylsulfonyl)-3,4-dihydropyrimidin-2(1H)-one]	0 to 25	0 to 25	–
CCn1c(=N)c(F)cn(S(=O)(=O)c2ccccc2)c1=O [Compound 6, 1-benzenesulfonyl-5-fluoro-4-imino-3-ethyl-3,4-dihydro-1H-pyrimidin-2-one]	0 to 25	0 to 25	163 to 166
CCn1c(=N)c(F)cn(S(=O)(=O)c2ccc(Cl)cc2)c1=O [Compound 7]	51 to 75	76 to 100	165 to 168
CCn1c(=N)c(F)cn(S(=O)(=O)c2ccc(OC)cc2)c1=O [Compound 8]	0 to 25	51 to 75	107 to 111
CCn1c(=N)c(F)cn(S(=O)(=O)c2c(Cl)cccc2Cl)c1=O [Compound 9]	0 to 25	76 to 100	182 to 185
